Where two headings read alike, the source gives them in different places.
How the values were obtained:
[1] = Solubility
[2] = test system: mouse; assay: Spontaneous motor activity in the mouse; type: in vivo; settings: Mus musculus, read-out: Spontaneous motor activity, 50% effective dose
Text: (§1) 6. Spontaneous motor activity in the rat and mouse and provoked motor activity
(§2) The effect of drugs on voluntary movements of animals can be studied statistically by methods, the details of which will not be discussed here. The mouse, which is an extremely lively animal and moves about a great deal, is particularly suitable for this type of experiment.

[3] = test system: male rat; assay: Combativeness (rat); type: in vivo; settings: rat, read-out: Combativeness, 50% effective dose
Text: It is possible to make a male rat aggressive towards another male rat enclosed in the same cage by passing an electric current of more or less high voltage through the floor of the cage.
This test, like the preceding one, can obviously give information of clinical value for the treatment of aggression diseases.

[4] = test system: mice; assay: Balance test: rotating rod (mice) (Equilibration); type: in vivo; settings: Mus musculus, read-out: Equilibration, 50% effective dose
Text: 2. Balance test: rotating rod (mice)
This test consists in observing whether the treated animals are capable of maintaining their balance on a horizontal rod kept in rotation.
Numerous neuroleptic compounds or tranquilizers disturb the equilibration reflex.

[5] = test system: mouse; assay: Potentiation of narcosis (M); type: in vivo; settings: PO, read-out: Narcotic potentiation, 50% effective dose
Text: 12. Potentiation of narcosis
Most psycholeptics are hypnotics in large doses, but many of them can, in small doses, without themselves producing any hypnosis, either prolong the time of sleep obtained with a true hypnotic (for example a barbiturate) or appreciably lower the dose of barbiturate required to obtain sleep.

[6] = test system: mice; assay: Anti-convulsant activity (electric shock) (mice); type: in vivo; settings: Mus musculus, ip, read-out: Electric shock, 50% effective dose
Text: 4. Anti-convulsant activity (electric shock) (mice)
The test consists in determining the intensity of the electric current required to produce a fatal shock in a batch of test animals.
Certain preventively administered compounds effectively protect a certain percentage of animals subjected to an electric current of an intensity which is fatal to untreated animals.

[7] = test system: mice; assay: Anti-convulsant activity (anti-pentetrazole) (mice); type: in vivo; settings: mouse, pentetrazole 125 mg./kg. IP, read-out: Anti-pentetrazole, 50% effective dose
Description: 3. Anti-convulsant activity (anti-pentetrazole) (mice)
Pentetrazole, injected intraperitoneally in a dose of 125 mg./kg. produces fatal convulsions in 100% of the animals.
Certain compounds exert a protective action preventing convulsions and permitting survival.

[8] = test system: rat; assay: Spontaneous motor activity in the rat; type: in vivo; settings: Rattus norvegicus, read-out: Spontaneous motor activity, 50% effective dose
Text: as §1, §2

[9] = Acute toxicity (M) LD 50; settings: in vivo, mouse
[10] = Stability in aqueous solution; type: physicochemical; settings: compound A obtained
[11] = test system: mouse; assay: Antistrychnine activity; type: in vivo; settings: po, read-out: Anti-strychnine, 50% effective dose
Text: 7. Antistrychnine activity

[12] = test system: mouse; assay: Morphine excitation (M); type: in vivo; settings: PO, read-out: Morphine excitation, 50% effective dose
Text: In the mouse, the action of morphine is different but also manifested by marked central excitation.

[13] = test system: central nervous system; assay: Pharmacodynamic / central nervous system tests taken together; type: in vivo
Text: A certain number of the compounds described in the present application have been studied with regard to their action on the central nervous system, as psycholeptics, myorrelaxants and tranquilizers. In addition, the acute toxicity has been determined for a number of these compounds.
It has thereby been possible to make quantitative comparisons of the activity of the different compounds for the different tests employed.

[14] = Reaction (pH) of aqueous solution; type: physicochemical
[15] = test system: rats; assay: Double box conditioning test (R); type: in vivo; settings: rat, PO; read-out: Double box conditioning, 50% effective dose
Text: The test used consists in educating rats to avoid an electric current passed through the floor of a cage of two compartments when they change compartments. The animal is first warned by a lamp which lights up in the compartment through which the current is passing while the other is in relative darkness.
This test, which requires more or less daily training at the rate of 50 times for each rat, makes it possible to follow the animals and note their progress. The performances realized at the end of a certain time (3 weeks to 1 month of training) are fairly constant, the percentage of errors made by adequately gifted subjects being less than 10 and very often even zero.
One would imagine that disturbances produced in these performances which call upon the memory of animals would be of great importance for the choice of a new medicament. A deconditioning drug of sufficient intensity could have the result of partly depriving the patient of the idea of danger and would consequently require special surveillance of the sick persons.

[16] = test system: mice; assay: Exploration test (mice); type: in vivo; settings: Mus musculus, ip, read-out: Exploration, 50% effective dose
Description: 5. Exploration test (mice)
This extremely simple test consists in placing a mouse at the center of a floor pierced with holes and in noting how many holes the mouse explores in 5 minutes. This test is carried out in a room in which complete silence is observed and which contains no person except the experimenter who is seated and still. It appeals to the curiosity of the animals. The doses of the compounds employed are, however, very small and considerably less than those required to impair movement. This simple test makes it possible to observe whether the compounds assayed produce a more or less pronounced lack of interest in the environment and it gives information which is interesting from the clinical point of view with regard to the treatment of anxiety and restlessness.

[17] = test system: rat; assay: Benzedrine provoked motor activity (R); type: in vivo; settings: PO, read-out: Benzedrine provoked motor activity, 50% effective dose
Text: as §1, §2
(§3) Moreover, this spontaneous mobility can be exacerbated by preventive administration to the animals of certain substances such as benzedrine, mescaline and ritaline.
(§4) The experimental results obtained by these methods give valuable information for clinical purposes with regard to the treatment of ambulatory psychomotor crises.

[18] = test system: mice; assay: Traction test (mice), myorelaxant activity; type: in vivo; settings: Mus musculus, read-out: Traction, 50% effective dose
Text: This consists in observing when the treated animals are capable of retrieving a rod grasped by the front paws only. Inability to carry this out was interpreted as a sign of myorelaxant activity.

[19] = test system: mouse; assay: Mescaline provoked motor activity (M); type: in vivo; settings: PO, read-out: Mescaline provoked motor activity, 50% effective dose
Text: as §1, §2, §3, §4

O=C([O-])C1N=C(c2ccccc2)c2cc(Cl)ccc2NC1=O.[K+] (centres unmarked) [4311 CB, 7-Chloro-2,3-dihydro-2-oxo-5-phenyl-1H-benzo[f]-1,4-diazepine-3-carboxylic acid, potassium salt]
Solubility in water [1]: completely soluble in water | ED50 ([2]; ip): 25 mg/kg | ED50 ([2]; po): 10 mg/kg | ED50 ([3]; IP): 25 mg/kg | ED50 ([3]; PO): 25 mg/kg | ED50 ([4]; ip): 4.5 mg/kg | ED50 ([4]; po): 5 mg/kg | ED50 [5]: 2 mg/kg | ED50 [6]: 2.6 mg/kg | ED50 ([7]; IP): 2.9 mg/kg | ED50 ([7]; PO): 1.65 mg/kg | ED50 ([8]; ip): 25 mg/kg | ED50 ([8]; po): 50 mg/kg | LD50 ([9]; IP): 310 mg/kg | LD50 ([9]; IV): 220 mg/kg | LD50 ([9]; PO): 870 mg/kg | LD50 ([9]; SC): 450 mg/kg | Decarboxylation on heating an aqueous solution [10]: decarboxylated within a few minutes | ED50 [11]: 20 mg/kg | ED50 [12]: 20 mg/kg | Activity compared with 4306 ([13]; in vivo): highly active but slightly less so than 4306 | Activity, parenteral compared with oral administration ([13]; parenteral vs oral): slightly less when administered parenterally than when administered orally | Reaction / pH of aqueous solution [14]: substantially neutral reaction | ED50 [15]: 10 mg/kg | ED50 [16]: 5 mg/kg | ED50 [17]: 50 mg/kg | ED50 ([18]; ip): 1.75 mg/kg | ED50 ([18]; po): 1.35 mg/kg | ED50 [19]: 20 mg/kg
